The values that follow come from article PMC11617484, “A Small Molecule Agonist of Krüppel-Like Factor 15 in Proteinuric Kidney Disease” (Journal of the American Society of Nephrology : JASN, 2024).

This assay addresses T1, inhibitor of nuclear factor kappa-B kinase subunit beta (IKKβ) (Homo sapiens, UniProt O14920).
T1 construct: gene IKBKB
T1 sequence (O14920 1-756): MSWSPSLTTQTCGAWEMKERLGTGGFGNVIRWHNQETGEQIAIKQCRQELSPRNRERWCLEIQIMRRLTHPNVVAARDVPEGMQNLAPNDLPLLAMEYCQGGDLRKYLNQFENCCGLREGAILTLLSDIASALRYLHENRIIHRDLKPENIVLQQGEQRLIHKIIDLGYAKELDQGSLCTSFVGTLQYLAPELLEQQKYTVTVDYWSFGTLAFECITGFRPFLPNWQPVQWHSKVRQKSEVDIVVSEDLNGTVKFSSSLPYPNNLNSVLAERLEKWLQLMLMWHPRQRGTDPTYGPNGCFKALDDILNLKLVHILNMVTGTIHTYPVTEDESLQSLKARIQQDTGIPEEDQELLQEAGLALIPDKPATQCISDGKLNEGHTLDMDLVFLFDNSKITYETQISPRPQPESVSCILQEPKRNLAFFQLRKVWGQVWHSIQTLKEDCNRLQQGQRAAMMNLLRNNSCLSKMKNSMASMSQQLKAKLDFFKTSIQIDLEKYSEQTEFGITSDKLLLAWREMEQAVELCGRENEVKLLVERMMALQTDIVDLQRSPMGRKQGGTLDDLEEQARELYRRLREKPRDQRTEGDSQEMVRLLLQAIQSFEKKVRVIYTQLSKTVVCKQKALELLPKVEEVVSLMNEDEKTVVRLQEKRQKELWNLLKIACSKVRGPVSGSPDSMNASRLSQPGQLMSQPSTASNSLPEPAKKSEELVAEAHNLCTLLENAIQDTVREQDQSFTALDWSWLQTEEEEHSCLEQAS
In words: IKKβ kinase activity assay (dose response, ATP dependence, M96V gatekeeper resistance); supported by cellular thermal shift assay in human podocytes. Type of assay: biochemical.

SMILES strings stand for the structures.

In general, IC50 refers to the point on the concentration scale where inhibition reaches its midpoint. Turning to `CSc1ccc(NC(=O)Nc2ccc(C)nc2)cc1` [BT503], the 50% inhibitory concentration (IC50) was determined as 163 nM.
